According to paper PMC7114351 (Antiviral Research, 2008):
Values joined by “and” are separate entries in the source; they are usually repeats but may differ in a detail not shown here. Equal values may be shown once. “Also recorded” adds a separate entry of the source. Read-outs that look alike come from different tables or passages of the source.

Key:
[1] = system: recombinant VACV expressing luciferase; assay: microbe, parasite or virus in culture; assay type: cell-based, vaccinia virus; details: for IC50: Orthopoxvirus vaccinia, read-out: Luc IC50 ± SD
[2] = system: VACV late promoter p4b (Luc L); assay type: cell-based, vaccinia virus
[3] = system: VACV (strain WR); details: HFF cells, ref Quenelle et al., 2007; cited from earlier work
[4] = system: VACV proteins; assay type: cell-based, vaccinia virus
[5] = Cytotoxicity, MTT assay; assay type: cell-based, human; details: human, HeLa G cells
[6] = Cytotoxicity, MTT assay; assay type: cell-based; details: human, Jurkat cells
[7] = Cytotoxicity, MTT assay; assay type: cell-based, African green monkey; details: African green monkey, BSC-40 cells
[8] = Cytotoxicity, MTT assay; assay type: cell-based, mouse; details: mouse, L929 cells
[9] = system: VACV genomic DNA; assay type: cell-based, vaccinia virus
[10] = system: WT VACV (WR); assay: microbe, parasite or virus in culture; assay type: cell-based; details: Orthopoxvirus vaccinia; for IC50: read-out: Titer IC50 ± SD; for IC90: read-out: Titer IC90 ± SD
[11] = system: WT VACV; assay type: cell-based, vaccinia virus
[12] = system: recombinant VACV; assay: microbe, parasite or virus in culture; assay type: cell-based, vaccinia virus; details: for IC50 / IC90: Orthopoxvirus vaccinia; for IC50: read-out: Titer IC50 ± SD; for IC90: read-out: Titer IC90 ± SD
[13] = system: HeLa G cells; assay: Cytotoxicity, MTT assay; assay type: cell-based, human
[14] = system: BSC-40 cells; assay: Cytotoxicity, MTT assay; assay type: cell-based, African green monkey
[15] = system: cell lines of the antiviral assays; assay: Cytotoxicity in conditions of the antiviral assays; details: up to 1 mM; higher cell density, 2% serum, 24 h incubation
[16] = system: L929 cells; assay: Cytotoxicity, MTT assay; assay type: cell-based, mouse
[17] = system: VACV; assay type: cell-based, vaccinia virus
[18] = system: luciferase expressed by Luc E/L or Luc L; assay type: cell-based, vaccinia virus
[19] = system: VACV early/late promoter p7.5 (Luc E/L); assay type: cell-based, vaccinia virus
[20] = system: VACVs (strain WR); details: two different VACVs (strain WR), ref Becker et al., 2008, cited from earlier work

In the case of `O[C@@H](CS)[C@@H](O)CS` (racemic) [dithiothreitol], the “luciferase activity, % of the mock-treated controls” value (from here on “luciferase activity, %”) [1] is reported as 140%.

With `Nc1ccn([C@@H]2O[C@H](CO)[C@@H](O)[C@@H]2O)c(=O)n1` [AraC, cytosine arabinoside] the “activity of luciferase expressed by Luc L, % of the mock-treated controls grown in the absence of AraC” value [2] was no more than 0.05%.

For `CCCCCCCCCCCCCCCCOCCCOP(=O)(O)CO[C@H](CO)Cn1ccc(N)nc1=O` [CMX001], the IC50 [3] is given as 0.13 µM.

In the case of `C=C(CC)C(=O)c1ccc(OCC(=O)O)c(Cl)c1Cl` [Ethacrynic acid, ethacrynic acid], the IC50 ([1]; 24 h) is reported as 18.3 ± 3.7 µM, the IC50 ([1]; BSC-40, 24 h) is reported as 35.3 ± 7 µM and the IC50 ([1]; HeLa, 24 h) is reported as 2.6 ± 0.6 µM. For the same molecule, the IC50 ([1]; L929, 24 h) was 26.5 ± 1.9 µM, the “VACV protein levels, western blot” value [4] was “did not seem to decrease protein levels” and the CC50 at 2 days [5] was 128 µM. For the same molecule, the CC50 at 2 days [6] was 35 µM, the CC50 at 2 days [7] was 292 µM and the CC50 at 2 days [8] was 224 µM. The “levels of VACV genomic DNA” value [9] was “not changed”, the IC50 ([10]; 24 h) was 9.5 ± 2.6 µM and the IC90 ([10]; 24 h) was 47.8 ± 7.9 µM. It also gave an IC50 ([10]; BSC-40, 24 h) of 9.2 ± 1 µM, an IC90 ([10]; BSC-40, 24 h) of 29.4 ± 1 µM and an IC90 ([10]; HeLa, 24 h) of 18.8 ± 0.6 µM. For the same molecule, the IC50 ([10]; Jurkat, 24 h) was 13.8 ± 4.7 µM, the IC90 ([10]; Jurkat, 24 h) was 42.9 ± 13.4 µM and the IC50 ([10]; L929, 24 h) was 19.3 ± 3.9 µM. The IC90 ([10]; L929, 24 h) was 61.3 ± 16.3 µM, the number of plaques [11] was “reduced the number of plaques” and the “inhibition of VACV growth” value [12] was 1 logs and 2 logs. The IC50 ([12]; 24 h) was 12.2 ± 0.3 µM, the IC90 ([12]; 24 h) was 40.9 ± 1.4 µM and the IC50 ([12]; BSC-40, 24 h) was 11.9 ± 0.5 µM. The IC90 ([12]; BSC-40, 24 h) was 30.9 ± 0.8 µM, the IC50 ([12]; HeLa, 24 h) was 1.6 ± 0.1 µM and the IC90 ([12]; HeLa, 24 h) was 5.4 ± 0.3 µM. It also gave an IC50 ([12]; Jurkat, 24 h) of 9.5 ± 2.4 µM, an IC90 ([12]; Jurkat, 24 h) of 30.9 ± 10 µM and an IC50 ([12]; L929, 24 h) of 19.8 ± 2.4 µM. For the same molecule, the IC90 ([12]; L929, 24 h) was 80.2 ± 30.9 µM.

With `O=C1O[C@H]([C@@H](O)CO)C(O)=C1O` [L-ascorbic acid, L-Ascorbic acid] the “luciferase activity, %” value [1] was 120%.

`O=C(O)CCCCC1CCSS1` (stereo not drawn) [Lipoic acid, α-lipoic acid] showed an IC50 ([1]; 24 h) of 305 ± 12 µM, an IC50 ([1]; BSC-40, 24 h) of 642 ± 4 µM and an IC50 ([1]; HeLa, 24 h) of 838 ± 159 µM. The IC50 ([1]; L929, 24 h) was 747 ± 199 µM, the “VACV protein levels, western blot” value [4] was “did not induce any major changes; also recorded: decreased the protein expression slightly” and the CC50 ([13]; MTT, 2 days of incubation) was “Growth promotion”. The “inhibition of cell growth, MTT” value ([13]; up to 2 mM) was “not found to inhibit growth”, the CC50 at 2 days [6] was greater than 2000 µM and the CC50 ([14]; MTT, 2 days of incubation) was “Growth promotion”. For the same molecule, the “inhibition of cell growth, MTT” value ([14]; up to 2 mM) was “not found to inhibit growth”, the “cytotoxicity in conditions of the antiviral assays” value [15] was “neither EA nor LA induced any obvious cytotoxicity” and the CC50 ([16]; MTT, 2 days of incubation) was “Growth promotion”. The “inhibition of cell growth, MTT” value ([16]; up to 2 mM) was “not found to inhibit growth”, the “levels of VACV genomic DNA” value [9] was “not changed” and the “effect of pre-treatment on luciferase activity and virus titers (VACV entry)” value [17] was “not found to cause any differences”. The “protein levels of luciferase, western blot” value [18] was “gradual decrease”, the “effect on activity of Luc L” value [2] was “dose-dependent inhibitory effect” and the “effect on activity of luciferase expressed by Luc L” value [2] was “neither EA nor LA affected this result”. The IC50 ([10]; 24 h) was 587 ± 296 µM, the IC50 ([10]; BSC-40, 24 h) was 712 ± 444 µM and the IC50 ([10]; HeLa, 24 h) was 803 ± 273 µM. For the same molecule, the IC50 ([10]; Jurkat, 24 h) was 492 ± 92 µM, the IC50 ([10]; L929, 24 h) was 702 ± 16 µM and the size of plaques [11] was “reduced the size of plaques”. It also gave an IC50 ([12]; BSC-40, 24 h) of 409 ± 8 µM, an IC50 ([12]; HeLa, 24 h) of 220 ± 14 µM and an IC50 ([12]; Jurkat, 24 h) of 354 ± 52 µM. The IC50 ([12]; L929, 24 h) was 245 ± 18 µM, the “effect on activity of Luc E/L” value [19] was “dose-dependent inhibitory effect” and the “effect on activity of luciferase expressed by Luc E/L (early gene expression)” value [19] was “neither EA nor LA further decreased this measurable activity of luciferase”.

In the case of `O=C(NN1C(=O)[C@@H]2[C@@H]3C=C[C@@H]([C@H]4C[C@@H]34)[C@@H]2C1=O)c1ccc(C(F)(F)F)cc1` [ST-246], the IC50 [3] is listed as 0.1 µM.

For `Nc1ccn(C[C@@H](CO)OCP(=O)(O)O)c(=O)n1` [cidofovir], the IC50 ([20]; BSC-40 cells) is listed as less than 50 µM, the IC50 ([20]; Vero cells) is listed as 54 µM and 62 µM and the IC50 [3] is listed as 33 µM.

With `OCCS` [β-mercapthoethanol, β-mercaptoethanol] the “luciferase activity, %” value [1] was 150%.
